Values of other authors, collected in patent US11053524B2, “Microorganisms having putrescine productivity and process for producing putrescine using the same” (CJ CHEILJEDANG CORPORATION, priority 2013, dated 2021).

Assays:
puuP = puuP (Escherichia coli, UniProt P76037); settings: read-out: Km of putrescine uptake
potABCD = potABCD (Escherichia coli, UniProt P0AFK9); settings: read-out: Km of putrescine uptake
PotFGHI = PotFGHI (Escherichia coli, UniProt P31133); settings: read-out: Km of putrescine uptake
potE = potE (Escherichia coli, UniProt P0AAF1); settings: read-out: Km of putrescine uptake
Chain of potE (P0AAF1 whole entry): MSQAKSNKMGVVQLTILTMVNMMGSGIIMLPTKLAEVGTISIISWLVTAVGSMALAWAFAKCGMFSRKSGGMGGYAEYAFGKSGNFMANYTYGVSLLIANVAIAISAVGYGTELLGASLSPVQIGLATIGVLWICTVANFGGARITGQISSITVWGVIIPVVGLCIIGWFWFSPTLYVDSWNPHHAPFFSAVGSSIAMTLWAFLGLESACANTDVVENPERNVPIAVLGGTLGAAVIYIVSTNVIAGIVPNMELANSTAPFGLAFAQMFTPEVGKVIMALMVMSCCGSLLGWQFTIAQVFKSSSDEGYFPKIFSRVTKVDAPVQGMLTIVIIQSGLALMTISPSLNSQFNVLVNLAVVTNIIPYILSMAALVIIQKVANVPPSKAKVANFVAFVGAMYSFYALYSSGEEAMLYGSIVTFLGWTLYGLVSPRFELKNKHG

Chain of potABCD (P0AFK9 24-348): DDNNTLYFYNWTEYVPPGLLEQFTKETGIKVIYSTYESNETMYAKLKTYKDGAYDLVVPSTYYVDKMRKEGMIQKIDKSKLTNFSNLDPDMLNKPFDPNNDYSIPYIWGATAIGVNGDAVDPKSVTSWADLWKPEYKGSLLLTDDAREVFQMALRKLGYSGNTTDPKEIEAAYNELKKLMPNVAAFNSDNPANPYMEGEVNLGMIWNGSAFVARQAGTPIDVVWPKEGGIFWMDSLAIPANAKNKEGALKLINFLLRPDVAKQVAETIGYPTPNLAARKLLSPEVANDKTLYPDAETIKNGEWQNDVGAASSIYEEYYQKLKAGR
Chain of puuP (P76037 whole entry): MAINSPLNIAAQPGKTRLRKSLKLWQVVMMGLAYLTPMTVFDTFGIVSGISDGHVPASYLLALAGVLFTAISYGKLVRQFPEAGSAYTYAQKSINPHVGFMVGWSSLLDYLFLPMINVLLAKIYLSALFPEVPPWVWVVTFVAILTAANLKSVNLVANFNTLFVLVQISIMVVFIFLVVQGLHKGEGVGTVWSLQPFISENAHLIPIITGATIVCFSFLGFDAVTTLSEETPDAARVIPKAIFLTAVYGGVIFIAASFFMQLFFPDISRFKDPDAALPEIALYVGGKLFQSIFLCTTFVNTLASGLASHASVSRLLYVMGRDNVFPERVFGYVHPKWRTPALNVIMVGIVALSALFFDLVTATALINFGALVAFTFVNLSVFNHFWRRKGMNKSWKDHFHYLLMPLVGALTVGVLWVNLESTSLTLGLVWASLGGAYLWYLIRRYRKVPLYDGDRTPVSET
Chain of PotFGHI (P31133 27-370): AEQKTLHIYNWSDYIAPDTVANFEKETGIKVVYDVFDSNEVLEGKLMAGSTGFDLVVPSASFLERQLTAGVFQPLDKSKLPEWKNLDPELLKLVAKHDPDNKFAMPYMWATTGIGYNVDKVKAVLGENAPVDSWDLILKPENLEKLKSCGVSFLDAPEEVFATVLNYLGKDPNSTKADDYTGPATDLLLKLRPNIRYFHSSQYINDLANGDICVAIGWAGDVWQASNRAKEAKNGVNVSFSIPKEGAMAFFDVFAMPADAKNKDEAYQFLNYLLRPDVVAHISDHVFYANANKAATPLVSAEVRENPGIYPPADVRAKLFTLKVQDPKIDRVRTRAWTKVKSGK

In the case of `NCCCCN` [putrescine, 1,4-butanediamine], the Km (puuP) is listed as 3700 µM, the “putrescine concentration to which the cell is sensitive” value (yeast cell) is listed as 90 mM and the “putrescine concentration to which the cell is resistant” value (yeast cell; yeast cell over-expressing TPO5 gene) is listed as 120 mM. The Km (potABCD) was 1500 µM, the Km (PotFGHI) was 500 µM and the Km (potE) was 1800 µM.
